Earlier results on three molecules are cited in patent US20050107425A1, “Treatment of attention defecit hyperactivity disorder” (Pfizer Inc, priority 2002, published 2005).

SMILES strings stand for the structures.

For series [1] the following is noted: clinical trials of Alzheimer's disease and attention-deficit disorders.
A further series concerns the target T1, 5HT3R (Homo sapiens, UniProt P46098).
T1 sequence (P46098 24-478): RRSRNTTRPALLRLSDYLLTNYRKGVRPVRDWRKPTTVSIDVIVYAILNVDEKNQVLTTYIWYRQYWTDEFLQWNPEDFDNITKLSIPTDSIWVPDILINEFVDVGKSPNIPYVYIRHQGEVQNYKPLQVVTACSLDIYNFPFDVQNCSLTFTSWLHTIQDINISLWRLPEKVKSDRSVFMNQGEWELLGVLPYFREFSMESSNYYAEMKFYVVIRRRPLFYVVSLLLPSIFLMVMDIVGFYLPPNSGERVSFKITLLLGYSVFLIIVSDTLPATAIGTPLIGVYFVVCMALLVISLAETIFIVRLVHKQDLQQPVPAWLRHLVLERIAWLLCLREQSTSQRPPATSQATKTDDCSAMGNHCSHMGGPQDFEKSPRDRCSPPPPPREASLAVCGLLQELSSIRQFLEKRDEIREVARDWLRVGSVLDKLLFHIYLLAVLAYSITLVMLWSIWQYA

For another series, the target named is α7 nAChR (Homo sapiens, UniProt P36544).
Sequence of α7 nAChR (P36544 23-502): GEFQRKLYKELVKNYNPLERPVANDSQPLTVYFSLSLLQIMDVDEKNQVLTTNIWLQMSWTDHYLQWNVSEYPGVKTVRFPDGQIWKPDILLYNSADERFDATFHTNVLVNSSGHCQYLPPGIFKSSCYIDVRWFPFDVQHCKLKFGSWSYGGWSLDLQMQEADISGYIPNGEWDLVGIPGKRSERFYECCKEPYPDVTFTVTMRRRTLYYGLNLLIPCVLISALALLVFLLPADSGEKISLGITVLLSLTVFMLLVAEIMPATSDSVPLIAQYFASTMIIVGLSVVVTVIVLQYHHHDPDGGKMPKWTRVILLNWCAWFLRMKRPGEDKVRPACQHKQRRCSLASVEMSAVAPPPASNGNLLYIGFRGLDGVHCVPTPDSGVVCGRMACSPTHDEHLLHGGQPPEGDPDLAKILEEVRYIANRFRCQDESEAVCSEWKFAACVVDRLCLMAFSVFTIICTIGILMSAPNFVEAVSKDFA

As to `Cc1cc([C@@H]2CCCN2C)on1` [ABT-418], in series [1], the “cognition and attention in clinical trials” value is “improves cognition and attention”.

As to `COc1ccc(/C=C2\CCCN=C2c2cccnc2)c(OC)c1` [GTS-21], on 5HT3R, the “activity at the 5HT3R” value is given as “little activity”.

For `Cc1nccn1CC1CCc2c(c3ccccc3n2C)C1=O` (stereo not drawn) [Ondansetron], the “activity at the α7 nAChR” value at α7 nAChR is “little activity”.
